Test results taken from patent publication US20070254907A1, “COMPOSITIONS AND METHODS FOR CONTROLLING INFESTATION” (HATCHTECH PTY LTD, priority 2003, published 2007).
Square brackets hold non-standard residues; d marks the D form. Peptide text beside a SMILES is read from it. * marks the point of attachment. Sta = CC(C)C[C@H](N)[C@@H](O)CC(=O)O; Isovaleryl = CC(C)CC(=O)*

Experiments:
Plutella xylostella eggs [1] = test: Glass house ovicidal test on sprayed cabbage plants; format: in vivo; conditions: 10 eggs per cabbage plant, one value per plant
Text: A number of treatments and replicates were set up in the glass house using young cabbage plants that were at the 4-5 leaf stage. Plutella xylostella eggs were laid by gravid females on the leaves such that each plant contained 10 eggs. The plants were sprayed with a commercial ovicide or using the compounds 5,5′-dimethyl-2,2′-dipyridyl and 5,5′diethyl-2,2′-dipyridyl in a formulation at the rate of 200 L/Ha using a track sprayer. Controls of water only or Placebo only were also included. The ovicidal efficacy was monitored over a number of days an the number of eggs hatching and caterpillar larvae emerging recorded (Table 22).

Plutella xylostella eggs [2] = test: whole plant or invertebrate; format: in vivo; conditions: for inhibition of Plutella egg hatching: 1% diethoxyglycol; for Number hatched / Number unhatched: Table 17, eggs laid on cloth; for % Inhibition: Table 17, relative to control (1% diethoxyglycol); for ovicidal efficacy against Plutella: 1% diethoxyglycol (FIG. 7)
Procedure: The ovicidal efficacy of 2-acetyl-1-tetralone was also tested against Plutella eggs.

[3] = system: proteases in egg shell washings (ESW) of lice eggs; test: Gelatin substrate SDS-PAGE of lice egg shell washings (ESW) incubated with protease inhibitors; format: biochemical, Pediculus humanus humanus; conditions: gel strips incubated with inhibitor: PMSF 5 mM, 1,10-phenanthroline 10 mM, EDTA 10 mM, pepstatin 5 μM, E-64 10 μM
Procedure: Within 12 hours of hatching 50 body lice eggs (Pediculus humanus humanus) were removed from the hair and placed in a 1 mL eppendorf tube. 20 μL of distilled water was added to the unhatched eggs and the preparation incubated for 30 minutes at 32° C. The 20 μL was recovered, freeze dried and stored at −70° C. This sample was referred to as sample 1. A number of other samples were also collected as described. Sample 2 was collected by removing the unhatched louse eggs from four hairs that were approximately 3 cm long, cutting the hair into 0.5 cm lengths, and placing them into a microfuge tube containing 20 μl of distilled water and incubating at 32° C. for 30 minutes. Sample 3 was collected as for sample 2, but the hair was placed in a tube containing 10 mL of 1% sodium hypochlorite for 1 minute followed by five 1 minute washes in 25 mL of distilled water to remove the sodium hypochlorite before being incubated in a microfuge tube containing 20 μl of distilled water and incubated as for Sample 2. Sample 4 was collected from unhatched eggs which were removed from the hair and washed with 1% sodium hypochlorite and incubated in 20 μl of distilled water in the same manner as the hair in Sample 3. Finally, Sample 5 was collected from eggs that were within 24 hrs of hatching which were washed with 1% sodium hypochlorite, then returned to the incubator at 32° C. until they hatched, the empty egg shells collected 0-2 hrs after egg-hatching, placed in a 1 mL microfuge tube containing 20 μl of distilled water and incubated as for Samples 1-4. For all samples 1-5 the 20 μl of fluid was recovered, freeze-dried and stored at −70° C. The washings recovered from these freshly hatched egg shells are referred to as egg-shell-washings (ESWs). In order to look for the presence of proteases present in these different samples, the freeze-dried samples were resuspended in 15 μL of non-reducing SDS sample buffer, centrifuged at 10,000 g for 2 minutes and the entire 15 μL loaded on to 10% gelatine substrate SDS-PAGE gels. Gels were run at 4° C. for 10 minutes at 10 mA followed by a further 25 minutes at 15 mA per gel. They were then incubated for 2×20 minutes in a 2.5% Triton-X 100 solution followed by a three hour incubation in 0.1M Tris/HCl containing 1 mM CaCl2 pH 8.0. Activity was detected as clear areas on the gel the result of protease activity degrading the gelatine within the gel.
Protease activity in the ESWs from louse eggs was also examined using two-dimensional gel electrophoresis. It was necessary to collect large numbers of freshly hatched egg shells. Following egglaying onto pieces of cloth, adult female lice were removed and the cloth with the eggs washed with 1% sodium hypochlorite as for collection of ESWs. The eggs were then returned to the incubator and permitted to hatch. Typically 100 to 500 hatched egg shells were collected (0-2 hours post hatching), placed in a microfuge tube containing 200 μl of distilled water, incubated and sample treated as described above. For analysis, ESWs were resuspended in rehydration buffer (8 M Urea, 2% 3-[(3-cholamidopropyl) dimethylammonio]-1-propanesulfonate 2% Immobilised pH gradient buffer 3-10 (Amersham Phamacia Biotech, Uppsala, Sweden)) and used to rehydrate 7 cm Immobiline Dry strips pH 3-10 (Amersham Bioscience) overnight. Strips were transferred to the Multiphor II (Pharmacia, Sweden) apparatus, electrophoresed in the first dimension at 200 V for 1 min, increasing to 3,500 V over the next 90 min followed by 65 min at 3,500 V, equilibrated (6 M urea, 30% glycerol, 50 mM Tris pH 8.8 and 2% SDS) and then run on a 10% SDS-PAGE gel containing 0.1% gelatin for the second dimension. The gel was then run and developed as previously described.
10% SDS-PAGE gelatine substrate gels were loaded with freeze dried egg shell washings from 100 lice eggs that had been resuspended in 50 μL of non-reducing sample buffer with samples run at 10 μL per lane. […]

[4] = system: Lice (L) and Plutella (P) eggs; conditions: in vivo
[5] = system: Lice (L) and Plutella (P) eggs; test: whole plant or invertebrate; conditions: read-out: Ovicidal activity %
[6] = system: Helicoverpa armigera eggs; test: Egg hatching of Helicoverpa armigera; conditions: 1% diethoxyglycol in water (FIG. 6)
Procedure: A range of concentrations were made up in water and the eggs placed in the solutions for approximately 2-10 seconds. The eggs which had been laid on cloth were then blotted dry and placed in an incubator at 26° C. for 3-4 days until hatch. Hatch rates were then assessed compared to a water only treated control (FIG. 5).
The compound was dissolved in 100% diethoxyglycol and diluted to a final concentration of 1% in water.
Several hundred Helicoverpa armigera eggs (Tatura×Toowoomba strains) were collected, that had been laid on fine mesh cloth over a 24 hour period.
Batches of Helicoverpa eggs were exposed to a specific inhibitor solution for between 2-10 seconds the excess solution drained by blotting with dry tissue paper. The egg masses were then placed in a humid box at 25 degrees until egg hatch. Control eggs were exposed to absolute methanol as described above. At day 6 post laying the eggs were assessed from the different treatments and the percentage of egg hatch determined relative to the control as shown in Table 12.
Batches of Helicoverpa eggs were then exposed to a specific inhibitor solution for between 2-10 seconds the excess solution drained by blotting with dry tissue paper. The egg masses were then placed in a humid box at 25° C. until egg hatch. Control eggs were exposed to absolute methanol as described above. At day 6 post laying the eggs were assessed from the different treatments and the percentage of egg hatch determined relative to the control as shown in Table 13.

H. contortus eggs = test: Egg hatching in Haemonchus contortus; format: in vivo
Procedure: In an attempt to improve control of H. contortus the effects of the compound 5,5′-dimethyl-2,2′-dipyridyl was examined on H. contortus eggs. Eggs were recovered from the faeces of infected sheep using a standard sucrose floatation method. The eggs were corrected to a density of approximately 2,500 eggs per mL and were then exposed to varying concentrations of compound and incubated for 48 hours at 25° C. The eggs were then examined to determine the ovicidal efficacy of the compound in comparison to untreated control and a solvent only control.
In addition, the ovicidal efficacy of the compound 2-acetyl-1-tetralone was examined against H. contortus (FIG. 10). The same protocol was used as described for 5,5′-dimethyl-2,2′-dipyridyl.

[7] = 0-24 h, 10 mM (200 L/Ha), with wetting agent 0.3 ml/L

Q: Which results are given for CCc1ccc(-c2ccc(CC)cn2)nc1 [5,5′-diethyl-2,2′-dipyridyl]?
A: # LARVAE EMERGED (Plutella xylostella eggs [1]; 0-24 h, 10 mM (200 L/Ha) No Wetting Agent): 0; # LARVAE EMERGED (Plutella xylostella eggs [1]; [7]): 0; inhibition of Plutella egg hatching (Plutella xylostella eggs [2]; 0.1 mM): Partial inhibition of egg hatching; inhibition of Plutella egg hatching (Plutella xylostella eggs [2]; 1 mM): complete inhibition; Number hatched (Plutella xylostella eggs [2]; 0.1 mM in 1% diethoxyglycol): 22; Number unhatched (Plutella xylostella eggs [2]; 0.1 mM in 1% diethoxyglycol): 34; Number hatched (Plutella xylostella eggs [2]; 1 mM in 1% diethoxyglycol): 0; Number unhatched (Plutella xylostella eggs [2]; 1 mM in 1% diethoxyglycol): 34; % Inhibition (Plutella xylostella eggs [2]; 0.1 mM): 31%; % Inhibition (Plutella xylostella eggs [2]; 1 mM): 100%

Q: With CC(C)CC(=O)N[C@H](C(=O)N[C@H](C(=O)N[C@@H](CC(C)C)[C@@H](O)CC(=O)N[C@@H](C)C(=O)N[C@@H](CC(C)C)[C@@H](O)CC(=O)O)C(C)C)C(C)C [pepstatin] (Isovaleryl-VV[Sta]A[Sta]-OH) as the compound, how does the “protease activity of ESW on gelatin SDS-PAGE compared to untreated controls” value [3] read?
A: no apparent reduction in protease activity

Q: For O=S(=O)(F)Cc1ccccc1 [PMSF], which “protease activity of ESW on gelatin SDS-PAGE compared to untreated controls” value [3] is on record?
A: no apparent reduction in protease activity

Q: For COc1ccc(C(=O)CC(=O)c2ccc(C(C)(C)C)cc2)cc1 [1-(4-tert-butylphenyl)-3-(4-methoxyphenyl)-propane-1,3-dione], which “Logit calc pLD50” value [4] is on record?
A: 0.7

Q: And the “Pref pLD50” value [4]?
A: <2

Q: What about the inhibition at 10000 µM [5] of the same compound?
A: 0%

Q: For CC(=O)C1CCc2ccccc2C1=O (stereo not drawn) [2-acetyl-1-tetralone], which “ovicidal efficacy against H. armigera eggs” value ([6]; 1 mM) is on record?
A: efficacy declining

Q: What about the “ovicidal efficacy against H. armigera eggs” value ([6]; 2 mM) of the same compound?
A: strong ovicidal efficacy

Q: And the “inhibition of H. contortus egg hatch” value (H. contortus eggs; 22 ug/mL (0.1 mM) (FIG. 10))?
A: Partial inhibition of egg hatching

Q: What about the “inhibition of H. contortus egg hatch” value (H. contortus eggs; 220 ug/mL (1 mM) and 110 ug/mL (0.5 mM) (FIG. 10)) of the same compound?
A: highly effective at inhibiting egg hatch

Q: What about the “ovicidal efficacy against Plutella” value (Plutella xylostella eggs [2]; 0.5 mM) of the same compound?
A: no inhibition observed

Q: What about the “ovicidal efficacy against Plutella” value (Plutella xylostella eggs [2]; 2 and 1 mM) of the same compound?
A: strong ovicidal efficacy

Q: And the inhibition at 1000 µM (Plutella xylostella eggs [2]; Plutella xylostella, Plutella (P), 1 mM, read-out: Ovicidal activity %)?
A: 100%

Q: And the inhibition at 10000 µM (Plutella xylostella eggs [2]; Plutella xylostella, Plutella (P), 10 mM, read-out: Ovicidal activity %)?
A: 100%

Q: How did the “protease activity of ESW on gelatin SDS-PAGE compared to untreated controls” value [3] turn out when CC(C)C[C@H](NC(=O)[C@H]1O[C@@H]1C(=O)O)C(=O)NCCCCN=C(N)N [E-64] was run?
A: no apparent reduction in protease activity

Q: Which “# LARVAE EMERGED” value (Plutella xylostella eggs [1]; [7]) does the source give for Cc1ccc(-c2ccc(C)cn2)nc1 [5,5′dimethyl-2,2′-dipyridyl] here?
A: 0

Q: And the “# LARVAE EMERGED” value (Plutella xylostella eggs [1]; 0-24 h, 20 mM (200 L/Ha), with wetting agent 0.3 ml/L)?
A: 0

Q: And the “# LARVAE EMERGED” value (Plutella xylostella eggs [1]; 24-48 h, 10 mM (200 L/Ha), with wetting agent 0.3 ml/L)?
A: 0

Q: And the “# LARVAE EMERGED” value (Plutella xylostella eggs [1]; 24-48 h, 20 mM (200 L/Ha), with wetting agent 0.3 ml/L)?
A: 0

Q: What about the “# LARVAE EMERGED” value (Plutella xylostella eggs [1]; 48-72 h, 20 mM (200 L/Ha), with wetting agent 0.3 ml/L) of the same compound?
A: 0

Q: Which “protease activity of ESW on gelatin SDS-PAGE compared to untreated controls” value [3] does the source give for O=C(O)CN(CCN(CC(=O)O)CC(=O)O)CC(=O)O [EDTA, ethylenediamine tetraacetic acid] here?
A: reduction in protease activity
